According to patent publication US9776967B2, “Carboxamide derivatives as pesticidal compounds” (priority 2013, dated 2017):
Where two headings read alike, the source gives them in different places. Each block holds one compound with its values, some of them ahead of it.

How the values were obtained:
Haemonchus contortus = experiment: In vitro assay with Haemonchus contortus (HAEMCO), larval mortality; conditions: 120 h; for Emax at 0.8 ppm / Emax at 4 ppm / Emax at 20 ppm: HAEMCO, 5dat, comparative example, read-out: % Efficacy; for mortality at 20 ppm: read-out: activity (larval mortality)
Experimental: In Vitro Assay with Haemonchus contortus (HAEMCO)
(§1) Solvent: Dimethyl Sulfoxide
(§2) To produce a suitable preparation of active compound, 10 mg of active compound are dissolved in 0.5 ml solvent, and the concentrate is diluted with “Ringer's solution” to the desired concentration.
Approximately 40 larvae of the red stomach worm (Haemonchus contortus) are transferred into a test tube containing compound solution.
After 5 days percentage of larval mortality are recorded. 100% efficacy means all larvae are killed, 0% efficacy means no larvae are killed.

[1] = LogP by HPLC on reversed phase columns (EEC directive 79/831 Annex V.A8); assay type: physicochemical
Experimental: Calibration was done with straight-chain alkan2-ones (with 3 to 16 carbon atoms) with known Log P values (measurement of Log P values using retention times with linear interpolation between successive alkanones). Lambda-max-values were determined using UV-spectra from 200 nm to 400 nm and the peak values of the chromatographic signals.

[2] = system: Nippostrongylus brasiliensis; experiment: In vitro assay with Nippostrongylus brasiliensis (NIPOBR), acetylcholine esterase readout; conditions: adult worms, read-out: activity (reduction of AChE compared to negative control); for inhibition at 1 ppm: 1 ppm (1 μg/ml); for inhibition at 10 ppm: 10 ppm (10 μg/ml)
Experimental: In Vitro Assay with Nippostrongylus brasiliensis (NIPOBR)
Adult Nippostrongylus brasiliensis were washed with saline buffer containing 100 U/ml penicillin, 0.1 mg/ml streptomycin and 2.5 μg/ml amphotericin B. Test compounds were dissolved in DMSO and worms were incubated in medium in a final concentration of 10 μg/ml (10 ppm) respectively 1 μg/ml (1 ppm). An aliquot of the medium was used to determine the acetylcholine esterase activity in comparison to a negative control. The principle of measuring acetylcholine esterase as readout for anthelmintic activity was described in Rapson et al (1986) and Rapson et al (1987).

Cooperia curticei = experiment: In vitro assay with Cooperia curticei (COOPCU), larval mortality; conditions: 120 h, read-out: activity (larval mortality)
Experimental: In Vitro Assay with Cooperia curticei (COOPCU)
as §1, §2
Approximately 40 nematode larvae (Cooperia curticei) are transferred into a test tube containing the compound solution.
After 5 days percentage of larval mortality is recorded. 100% efficacy means all larvae are killed; 0% efficacy means no larvae are killed.

Meloidogyne incognita = Meloidogyne incognita (MELGIN) assay, gall formation on salad seedlings; assay type: in vivo; conditions: 336 h, after 14 days, read-out: nematicidal activity (percentage of gall formation; 100% = no galls)
Experimental: Meloidogyne incognita (MELGIN) Assay
Solvent: 125.0 parts by weight of acetone
To produce a suitable preparation of active compound, 1 part by weight of active compound is mixed with the stated amount of solvent, and the concentrate is diluted with water to the desired concentration.
Vessels are filled with sand, a solution of the active ingredient, a suspension containing eggs and larvae of the southern root-knot nematode (Meloidogyne incognita) and salad seeds. The salad seeds germinate and the seedlings grow. Galls develop in the roots.
After 14 days the nematicidal activity is determined on the basis of the percentage of gall formation. 100% means no galls were found and 0% means the number of galls found on the roots of the treated plants was equal to that in untreated control plants.

[3] = LC-UV, acidic range, 0.1% formic acid in water and acetonitrile, read-out: logP (HCOOH) [a]
[4] = reversed-phase HPLC column, LC-UV, acidic range, 0.1% formic acid in water and acetonitrile, read-out: logP (HCOOH) [a]

SMILES: O=C(NCCc1ccc(-c2ccc(OC(F)(F)F)cc2)cc1)c1ccccc1C(F)(F)F [Ex.-No. 1-49, reference compound]
Emax at 0.8 ppm (Haemonchus contortus): 60% | Emax at 4 ppm (Haemonchus contortus): 60% | Emax at 20 ppm (Haemonchus contortus; 20 ppm): 80%

SMILES: O=C(NCCc1ncc(-c2ccc(Cl)cc2)cc1Cl)c1ccccc1C(F)(F)F [Example 1, N-{2-[3-chloro-5-(4-chlorophenyl)pyridin-2-yl]ethyl}-2-(trifluoromethyl)benzamide]
chromatographic logP [1, 3]: 3.97 | inhibition at 1 ppm [2]: ≥ 60% | inhibition at 10 ppm [2]: ≥ 60% | mortality at 20 ppm (Cooperia curticei): 100% | mortality at 20 ppm (Haemonchus contortus; 20 ppm, after 5 days): 100% | Emax at 0.8 ppm (Haemonchus contortus): 100% | Emax at 4 ppm (Haemonchus contortus): 100% | Emax at 20 ppm (Haemonchus contortus; 20 ppm): 100% | pest or weed control at 20 ppm (Meloidogyne incognita): 100%

SMILES: O=C(NCC(F)(F)c1ncc(-c2ccc(Cl)cc2)cc1Cl)c1ccccc1C(F)(F)F [Example 2, N-{2-[3-chloro-5-(4-chlorophenyl)pyridin-2-yl]-2,2-difluoroethyl}-2-(trifluoromethyl)-benzamide]
chromatographic logP [1, 3]: 4.17 | inhibition at 1 ppm [2]: ≥ 60% | mortality at 20 ppm (Cooperia curticei): 100% | mortality at 20 ppm (Haemonchus contortus; 20 ppm, after 5 days): 100%

SMILES: O=C(NCC(F)(F)c1ncc(-c2cccc(Cl)c2)cc1Cl)c1ccccc1C(F)(F)F [Example 3]
chromatographic logP ([1]; logP (HCOOH) [a]): 4.17 | inhibition at 1 ppm [2]: ≥ 60% | inhibition at 10 ppm [2]: ≥ 60% | mortality at 20 ppm (Cooperia curticei): 100% | mortality at 20 ppm (Haemonchus contortus): 100%

SMILES: O=C(NCC(F)(F)c1ncc(-c2ccc(OC(F)F)cc2)cc1Cl)c1ccccc1C(F)(F)F [Example 4]
chromatographic logP ([1]; logP (HCOOH) [a]): 3.78 | inhibition at 1 ppm [2]: ≥ 60% | inhibition at 10 ppm [2]: ≥ 60% | mortality at 20 ppm (Cooperia curticei): 100% | mortality at 20 ppm (Haemonchus contortus): 100% | pest or weed control at 20 ppm (Meloidogyne incognita): 100%

SMILES: O=C(NCC(F)(F)c1ncc(-c2ccccc2)cc1Cl)c1ccccc1C(F)(F)F [Example 5]
chromatographic logP ([1]; logP (HCOOH) [a]): 3.75 | inhibition at 1 ppm [2]: ≥ 60% | inhibition at 10 ppm [2]: ≥ 60% | mortality at 20 ppm (Cooperia curticei): 100% | mortality at 20 ppm (Haemonchus contortus): 100% | pest or weed control at 20 ppm (Meloidogyne incognita): 90%

SMILES: COc1ccc(-c2cnc(C(F)(F)CNC(=O)c3ccccc3C(F)(F)F)c(Cl)c2)cc1Cl [Example 6]
chromatographic logP [1, 3]: 3.94 | mortality at 20 ppm (Cooperia curticei): 100% | mortality at 20 ppm (Haemonchus contortus; 20 ppm, after 5 days): 100% | pest or weed control at 20 ppm (Meloidogyne incognita): 90%

SMILES: COc1ccc(-c2cnc(C(F)(F)CNC(=O)c3ccccc3C(F)(F)F)c(Cl)c2)cc1 [Example 7]
chromatographic logP [1, 3]: 3.68 | inhibition at 1 ppm [2]: ≥ 60% | inhibition at 10 ppm [2]: ≥ 60% | mortality at 20 ppm (Cooperia curticei): 100% | mortality at 20 ppm (Haemonchus contortus; 20 ppm, after 5 days): 100% | pest or weed control at 20 ppm (Meloidogyne incognita): 100%

SMILES: Cc1ccccc1-c1cnc(C(F)(F)CNC(=O)c2ccccc2C(F)(F)F)c(Cl)c1 [Example 9]
chromatographic logP [1, 3]: 4 | mortality at 20 ppm (Cooperia curticei): 100% | mortality at 20 ppm (Haemonchus contortus; 20 ppm, after 5 days): 100% | pest or weed control at 20 ppm (Meloidogyne incognita): 100%

SMILES: O=C(NCC(F)(F)c1ncc(-c2cccc(C(F)(F)F)c2)cc1Cl)c1ccccc1C(F)(F)F [Example 10]
chromatographic logP ([1]; logP (HCOOH) [a]): 4.17 | inhibition at 1 ppm [2]: ≥ 60% | mortality at 20 ppm (Cooperia curticei): 100% | mortality at 20 ppm (Haemonchus contortus): 100%

SMILES: O=C(NCC(F)(F)c1ncc(-c2cc(F)cc(F)c2)cc1Cl)c1ccccc1C(F)(F)F [Example 12]
chromatographic logP ([1]; logP (HCOOH) [a]): 3.89 | inhibition at 1 ppm [2]: ≥ 60% | inhibition at 10 ppm [2]: ≥ 60% | mortality at 20 ppm (Cooperia curticei): 100% | mortality at 20 ppm (Haemonchus contortus): 100%

SMILES: O=C(NCC(F)(F)c1ncc(-c2ccccc2F)cc1Cl)c1ccccc1C(F)(F)F [Example 13]
chromatographic logP ([1]; logP (HCOOH) [a]): 3.73 | inhibition at 1 ppm [2]: ≥ 60% | mortality at 20 ppm (Cooperia curticei): 100% | mortality at 20 ppm (Haemonchus contortus): 100%

SMILES: O=C(NCC(F)(F)c1ncc(-c2ccccc2Cl)cc1Cl)c1ccccc1C(F)(F)F [Example 16]
chromatographic logP ([1]; logP (HCOOH) [a]): 4 | inhibition at 1 ppm [2]: ≥ 60% | inhibition at 10 ppm [2]: ≥ 60% | mortality at 20 ppm (Cooperia curticei): 100% | mortality at 20 ppm (Haemonchus contortus): 100%

SMILES: CN(C)c1ccc(-c2cnc(C(F)(F)CNC(=O)c3ccccc3C(F)(F)F)c(Cl)c2)cc1 [Example 17]
chromatographic logP [1, 3]: 4.09 | mortality at 20 ppm (Cooperia curticei): 100% | mortality at 20 ppm (Haemonchus contortus; 20 ppm, after 5 days): 100%

SMILES: O=C(NCC(F)(F)c1ncc(-c2ccc(F)cc2)cc1Cl)c1nccnc1C(F)(F)F [Example 19]
chromatographic logP [1, 3]: 3.51 | mortality at 20 ppm (Cooperia curticei): 100% | mortality at 20 ppm (Haemonchus contortus; 20 ppm, after 5 days): 100% | pest or weed control at 20 ppm (Meloidogyne incognita): 90%

SMILES: CC(F)(CNC(=O)c1cccnc1C(F)(F)F)c1ncc(-c2ccc(Cl)cc2)cc1Cl (stereo not shown) [Example 20]
chromatographic logP [1, 3]: 3.83

SMILES: CC(F)(CNC(=O)c1ccccc1C(F)(F)F)c1ncc(-c2ccc(F)cc2)cc1Cl (stereo not shown) [Example 21, N-{2-[3-chloro-5-(4-fluorophenyl)pyridin-2-yl]-2-fluoropropyl}-2-(trifluoromethyl) benzamide]
chromatographic logP [1, 3]: 3.96 | pest or weed control at 20 ppm (Meloidogyne incognita): 100%

SMILES: Cc1ccc(-c2cnc(C(C)(F)CNC(=O)c3cccnc3C(F)(F)F)c(Cl)c2)cc1 (stereo not shown) [Example 22]
chromatographic logP [1, 3]: 2.15

SMILES: CC(F)(CNC(=O)c1ccccc1C(F)(F)F)c1ncc(-c2ccccc2)cc1Cl (stereo not shown) [Example 23]
chromatographic logP [1, 3]: 3.92

SMILES: O=C(NCC(F)(F)c1ncc(-c2ccc3c(c2)OC(F)(F)O3)cc1Cl)c1ccccc1C(F)(F)F [Example 25]
chromatographic logP [1, 3]: 4.18

SMILES: O=C(NCC(F)(F)c1ncc(-c2ccc(F)cc2)cc1Cl)c1cccnc1C(F)(F)F [Example 26]
chromatographic logP [1, 3]: 3.29 | pest or weed control at 20 ppm (Meloidogyne incognita): 100%

SMILES: CC(F)(CNC(=O)c1cccnc1C(F)(F)F)c1ncc(-c2ccccc2)cc1Cl (stereo not shown) [Example 28]
chromatographic logP [1, 3]: 3.38

SMILES: Cc1ccc(-c2cnc(C(C)(F)CNC(=O)c3ccccc3C(F)(F)F)c(Cl)c2)cc1 (stereo not shown) [Example 29]
chromatographic logP [1, 3]: 4.35

SMILES: O=C(NCC(F)(F)c1ncc(-c2ccc(N3CCCC3)cc2)cc1Cl)c1ccccc1C(F)(F)F [Example 30]
chromatographic logP [1, 3]: 4.83 | mortality at 20 ppm (Cooperia curticei): 100% | mortality at 20 ppm (Haemonchus contortus; 20 ppm, after 5 days): 90%

SMILES: CN1CCN(c2ccc(-c3cnc(C(F)(F)CNC(=O)c4ccccc4C(F)(F)F)c(Cl)c3)cc2)CC1 [Example 31]
chromatographic logP [1, 3]: 1.78 | chromatographic logP ([1]; LC-UV, neutral range, 0.001 molar ammonium acetate solution in water and acetonitrile, read-out: logP [b]): 3.39 | mortality at 20 ppm (Cooperia curticei): 100% | mortality at 20 ppm (Haemonchus contortus; 20 ppm, after 5 days): 100%

SMILES: O=C(NCC(F)(F)c1ncc(-c2ccc(N3CCOCC3)cc2)cc1Cl)c1ccccc1C(F)(F)F [Example 32]
chromatographic logP [1, 3]: 3.59 | mortality at 20 ppm (Cooperia curticei): 100%

SMILES: CS(=O)(=O)c1ccc(-c2cnc(C(F)(F)CNC(=O)c3ccccc3C(F)(F)F)c(Cl)c2)cc1 [Example 33]
chromatographic logP [1, 3]: 2.65

SMILES: O=C(NCC(F)(F)c1ncc(-c2ccc(F)c(C(F)(F)F)c2)cc1Cl)c1ccccc1C(F)(F)F [Example 34]
chromatographic logP [1, 3]: 4.19

SMILES: CSc1ccc(-c2cnc(C(F)(F)CNC(=O)c3ccccc3C(F)(F)F)c(Cl)c2)cc1 [Example 35]
chromatographic logP [1, 3]: 4.1

SMILES: CNc1ccc(-c2cnc(C(F)(F)CNC(=O)c3ccccc3C(F)(F)F)c(Cl)c2)cc1 [Example 36]
chromatographic logP [1, 3]: 3.39

chromatographic logP [1, 4]: 3.29
SMILES: N#Cc1ccc(-c2cnc(C(F)(F)CNC(=O)c3ccccc3C(F)(F)F)c(Cl)c2)cc1 [Example 37]

SMILES: CC(=O)Nc1ccc(-c2cnc(C(F)(F)CNC(=O)c3ccccc3C(F)(F)F)c(Cl)c2)cc1 [Example 38]
chromatographic logP [1, 3]: 2.7

SMILES: O=C(NCC(F)(F)c1ncc(-c2ccc(SC(F)(F)F)cc2)cc1Cl)c1ccccc1C(F)(F)F [Example 39]
chromatographic logP [1, 3]: 4.65

chromatographic logP [1, 4]: 1.18 | chromatographic logP ([1]; reversed-phase HPLC column, LC-UV, neutral range, 0.001 molar ammonium acetate solution in water and acetonitrile, read-out: logP [b]): 2.61
SMILES: NCC(F)(F)c1ncc(-c2ccc(F)cc2)cc1Cl [INT-1, 2-[3-chloro-5-(4-fluorophenyl)-2-pyridyl]-2,2-difluoro-ethanamine]
